Laboratory results taken from ChEMBL document CHEMBL1201862, “PubChem BioAssay data set” (2004).
Active and inactive are the calls of the source.

Key:
[1] = target: T1, Heat shock factor protein 1 (Mus musculus, UniProt P38532); test: inhibition of MG132-induced HSE-luciferase signal, confirmation, cell-based, NIH3T3, luminescence, dose retest (AID 2382); type: functional;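 further: NIH3T3 fibroblasts with HSF1-driven luciferase reporter stressed by proteasome inhibitor MG132; luminescence from HSF1-driven luciferase expression after 8 hours of MG132 stress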
T1 sequence (P38532 whole entry): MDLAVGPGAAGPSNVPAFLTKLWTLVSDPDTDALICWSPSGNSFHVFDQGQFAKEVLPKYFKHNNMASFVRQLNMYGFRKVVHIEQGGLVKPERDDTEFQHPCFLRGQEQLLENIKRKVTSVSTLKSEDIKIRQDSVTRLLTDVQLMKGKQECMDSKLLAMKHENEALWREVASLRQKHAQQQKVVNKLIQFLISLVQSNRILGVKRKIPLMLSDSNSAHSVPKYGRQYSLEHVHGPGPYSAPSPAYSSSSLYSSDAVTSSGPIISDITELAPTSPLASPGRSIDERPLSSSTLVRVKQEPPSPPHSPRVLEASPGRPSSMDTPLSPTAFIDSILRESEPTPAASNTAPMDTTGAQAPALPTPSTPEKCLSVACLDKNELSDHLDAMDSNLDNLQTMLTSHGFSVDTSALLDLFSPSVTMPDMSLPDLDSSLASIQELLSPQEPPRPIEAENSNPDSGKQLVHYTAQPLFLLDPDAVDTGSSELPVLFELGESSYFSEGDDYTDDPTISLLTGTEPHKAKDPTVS

[2] = Jurkat T cell cytotoxicity, dose response, cytotoxicity control for P. falciparum gametocyte viability project, luminescence (AID 1117277); type: functional, cell-based;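 further: potency reflects loss of cellular ATP meaning fewer viable cells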
[3] = P. falciparum late gametocyte killing, dose response, luminescence (AID 1117278); type: functional, cell-based;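 further: gametocytes exposed to compound for 24 hours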
Prothrombin = Prothrombin (Homo sapiens, UniProt P00734); test: Thrombin 1536 HTS Dose Response Confirmation. [Related pubchem assays: 1046 (Thrombin 1536 HTS; hits were confirmed in this assay)]; type: functional
[4] = target: T2, Epstein-Barr nuclear antigen 1 (Epstein-Barr virus (strain B95-8) (HHV-4) (Human herpesvirus 4), UniProt P03211); test: EBNA-1 inhibitors, dose response, biochemical, fluorescence polarization, 1536-well (AID 2381); design: species or system human gammaherpesvirus 4;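 further: fluorescence polarization of a Cy5 DNA probe bound by EBNA-1 protein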
T2 sequence (P03211 whole entry): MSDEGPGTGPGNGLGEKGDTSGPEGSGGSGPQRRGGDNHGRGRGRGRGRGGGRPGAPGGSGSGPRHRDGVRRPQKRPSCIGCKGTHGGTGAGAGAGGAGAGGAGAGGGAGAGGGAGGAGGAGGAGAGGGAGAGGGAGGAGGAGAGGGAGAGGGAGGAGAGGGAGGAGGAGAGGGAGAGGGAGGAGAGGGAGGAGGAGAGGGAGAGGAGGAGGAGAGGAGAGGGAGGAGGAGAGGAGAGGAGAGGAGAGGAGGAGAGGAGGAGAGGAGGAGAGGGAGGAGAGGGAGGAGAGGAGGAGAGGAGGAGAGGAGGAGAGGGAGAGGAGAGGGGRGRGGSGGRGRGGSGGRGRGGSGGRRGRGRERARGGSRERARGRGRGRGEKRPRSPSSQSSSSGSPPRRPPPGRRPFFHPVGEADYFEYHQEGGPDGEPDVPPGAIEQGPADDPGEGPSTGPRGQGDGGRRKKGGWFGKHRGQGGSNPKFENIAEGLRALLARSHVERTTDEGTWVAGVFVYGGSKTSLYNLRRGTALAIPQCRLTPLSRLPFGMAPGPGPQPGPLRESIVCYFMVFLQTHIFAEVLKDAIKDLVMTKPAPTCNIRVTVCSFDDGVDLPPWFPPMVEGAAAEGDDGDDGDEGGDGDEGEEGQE

[5] = target: T3, Lytic switch protein BZLF1 (Epstein-Barr virus (strain B95-8) (HHV-4) (Human herpesvirus 4), UniProt P03206); test: EBV ZTA inhibitors, dose response, counter-screen for EBNA-1 inhibitor project, biochemical, fluorescence polarization, Epstein-Barr virus, 1536-well (AID 2377); design: species or system human gammaherpesvirus 4;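 further: fluorescence polarization of Cy5-labelled ZRE DNA probe bound by purified Zta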
T3 sequence (P03206 whole entry): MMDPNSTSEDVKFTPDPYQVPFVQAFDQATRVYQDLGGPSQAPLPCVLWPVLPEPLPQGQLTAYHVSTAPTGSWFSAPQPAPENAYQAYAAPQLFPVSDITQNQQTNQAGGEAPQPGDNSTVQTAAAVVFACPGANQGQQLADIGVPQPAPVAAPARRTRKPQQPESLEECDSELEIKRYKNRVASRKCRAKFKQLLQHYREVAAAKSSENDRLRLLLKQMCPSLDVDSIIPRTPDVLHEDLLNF

14-3-3 protein gamma = target: T4, 14-3-3 protein gamma (Homo sapiens, UniProt P61981); test: modulators of 14-3-3 gamma client binding – dose response (AID 711); type: functional
T4 sequence (P61981 whole entry): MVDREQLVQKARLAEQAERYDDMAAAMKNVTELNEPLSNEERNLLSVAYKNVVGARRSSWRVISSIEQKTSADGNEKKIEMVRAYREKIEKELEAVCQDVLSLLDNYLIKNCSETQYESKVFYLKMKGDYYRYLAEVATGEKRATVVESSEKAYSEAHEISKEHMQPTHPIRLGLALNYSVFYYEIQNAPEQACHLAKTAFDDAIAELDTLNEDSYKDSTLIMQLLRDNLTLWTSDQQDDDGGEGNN

Bcl-2-like protein 1 = Bcl-2-like protein 1 (Homo sapiens, UniProt Q07817); test: BCL-XL inhibitors, dose response, selectivity assay for MCL1 inhibitor project, biochemical, fluorescence polarization, 1536-well (AID 2218)
Sequence of Bcl-2-like protein 1 (Q07817 whole entry): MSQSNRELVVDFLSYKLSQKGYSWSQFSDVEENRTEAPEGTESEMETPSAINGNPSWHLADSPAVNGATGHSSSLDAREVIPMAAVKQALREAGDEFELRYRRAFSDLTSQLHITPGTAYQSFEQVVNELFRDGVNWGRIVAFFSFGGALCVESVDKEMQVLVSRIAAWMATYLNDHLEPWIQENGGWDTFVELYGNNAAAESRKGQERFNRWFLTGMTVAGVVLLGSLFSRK

[6] = THP-1 cell cytotoxicity, dose response, cytotoxicity control for Vif-APOBEC3G degradation inhibitor project, THP-1 cells (AID 1117359); type: functional; conditions: Human immunodeficiency virus 1, THP-1
[7] = target: Induced myeloid leukemia cell differentiation protein Mcl-1 (Homo sapiens, UniProt Q07820); test: MCL1-BIM BH3 interaction inhibitors, dose response, biochemical, fluorescence polarization, BIM-BH3 peptide, 1536-well (AID 2217)
Sequence of Induced myeloid leukemia cell differentiation protein Mcl-1 (Q07820 whole entry): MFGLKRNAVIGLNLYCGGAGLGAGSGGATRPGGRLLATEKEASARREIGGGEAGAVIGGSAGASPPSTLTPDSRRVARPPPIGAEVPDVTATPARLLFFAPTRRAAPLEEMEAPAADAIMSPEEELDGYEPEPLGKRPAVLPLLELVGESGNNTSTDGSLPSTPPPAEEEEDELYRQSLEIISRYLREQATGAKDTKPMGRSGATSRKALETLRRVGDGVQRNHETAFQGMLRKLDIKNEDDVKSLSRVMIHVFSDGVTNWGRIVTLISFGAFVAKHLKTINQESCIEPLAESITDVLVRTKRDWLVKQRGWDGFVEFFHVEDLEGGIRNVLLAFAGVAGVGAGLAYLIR

CN(C)c1nc(OCCNC(=O)COc2ccc(Cl)cc2Cl)nc(N(C)C)n1
EC50 [1]: > 195 µM (not active) | IC50 [2]: > 83.3 µM (inactive) | IC50 [3]: > 109 µM (inactive)

COc1ccc(C(=O)n2ncc(C#N)c2N)cc1
IC50 (Prothrombin): 15.1 µM (active)

CCC(=O)Nc1ccc(C(=O)Nc2ccc3c(c2)C(=O)N(CC2CCCO2)C3=O)cc1 (stereo unspecified)
IC50 [4]: 6.54 µM (active) | IC50 [5]: > 111 µM (not active)

Cc1ccccc1CS(=O)(=O)Cc1ccc(C(=O)NCc2ccccn2)o1
IC50 (14-3-3 protein gamma): 50 µM (not active)

O=[N+]([O-])c1cc(CN2CCCC2)c2cccnc2c1O
IC50 (Bcl-2-like protein 1): > 109 µM (not active) | CC50 [6]: > 40 µM (active) | IC50 [7]: 2.7 µM (active)

CCCCC1(C(=O)OCC)CC(CN2CCOCC2)OC1=O (stereo unspecified)
IC50 (14-3-3 protein gamma): > 50 µM (not active)
